# Columns and labels:
# [1] = biological target: T1, TIFA-TRAF6 interaction (Homo sapiens, UniProt Q96CG3); assay: FLAG-TIFA immunoprecipitation and immunoblot for TRAF6; assay type: cell-based
# T1 construct: expressed in transfected cells; endogenous TIFA knocked down with a 3' UTR shRNA; TRAF6 endogenous
# T1 sequence (Q96CG3 1-184): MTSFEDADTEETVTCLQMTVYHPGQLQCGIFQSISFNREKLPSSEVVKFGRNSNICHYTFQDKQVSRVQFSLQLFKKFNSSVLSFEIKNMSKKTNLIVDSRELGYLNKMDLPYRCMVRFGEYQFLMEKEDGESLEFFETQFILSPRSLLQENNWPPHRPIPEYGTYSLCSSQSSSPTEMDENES
# Description: (§1) FLAG-TIFA was immunoprecipitated from Jurkat cells using FLAG M2 agarose beads (Sigma) as described previously (Chen and Gingras, 2007). Briefly, cells were lysed in 50 mM Hepes-KOH pH 8.0, 100 mM KCl, 2 mM EDTA, 0.1% NP40, 10% glycerol. Soluble cell lysates were pre-cleared for 2 hr with mouse IgG agarose (Sigma) and immunoprecipitated overnight at 4° C. Proteins eluted using 0.5 M NH4OH pH 11 (for mass-spectrometry), or 3× FLAG-peptide (Sigma) (immunoblot analysis). TRAF6 was immunoprecipitated from Jurkat cell lysates using rabbit anti-TRAF6 (sc-72201; Santa cruz) conjugated to protein A/G PLUS-agarose (Santa cruz) and eluted in sample buffer. Whole cell lysates or immunoprecipitation eluates were immunoblotted with the following antibodies: M2 anti-FLAG (Sigma), rabbit anti-FLAG (Sigma), mouse anti-TRAF6 (sc-8409; Santa Cruz), rabbit anti-TRAF2 (sc-876), mouse anti-ubiquitin (sc-8017; Santa cruz), mouse anti-beta actin (Sigma). For phosphopeptide analysis, FLAG-TIFA was excised from the gel, subject to in-gel trypic digestion, followed by treatment with cyanogen bromide (Sigma) in 70% TFA and analyzed by LC/MS/MS. Data were analyzed by Scaffold PTM (Proteome).
# [2] = biological target: T2, TIFA (Homo sapiens, UniProt Q96CG3); assay: Native PAGE analysis of FLAG-TIFA oligomerization; assay type: cell-based; settings: clear native-PAGE or blue native PAGE; Jurkat cells; FIG. 20
# T2 construct: expressed in transfected cells; endogenous TIFA knocked down with a 3' UTR shRNA
# T2 sequence (Q96CG3 1-184): T1 sequence (Q96CG3 1-184)
# Source text: For BlueNative PAGE, cells were lysed in 1% NP-40, 0.1% Triton-X100, 0.1% SDS and soluble lysate separated by gradient PAGE (8-16%) using ExpressPlus System™ (GenScript) as described previously (Kofoed and Vance, 2013). For ClearNative PAGE, cells were lysed in 1% NP-40, 0.1% Trition-X100, 0.1% SDS and soluble lysate separated on 12.5% tris-glycine polyacrylamide gels.
# [3] = test system: HIV gene expression from latently-infected cells; assay: Latent HIV-1 reporter Jurkat T cell line (RG5), DsRed expression; assay type: cell-based, human; settings: FIG. 11B
# Source text: The full-length HIV-1 molecular clone pLAl containing the following modifications was used as the reporter backbone: Avrll deletion of the 3′ end of Gag and the entire coding sequence of Pol, and a the Ndel/Stul deletion of the 3′ end of Env. The Dsred allele was cloned into the Nef reading frame using BamH1, and Xhol. Lentiviral particles were produced by co-transfection into 293T cells with pMDG.2 and psPAX2. Jurkat cells were transduced with the minimum dose required to see DsRed positive cells following treatment with 10 ng/ml TNFα. 48 hours post transfection, cells were treated HBP, and DsRed positive cells sorted by FACS. Cells were cultured for 14 days followed by DsRed negative cell sorting by FACS. 5 days later, cells were induced with HBP, and DsRed positive cells collected into 96 well plates (0.5 cells/well). Clones were individually tested for low basal DsRed expression, and high DsRed expression following treatment with both HBP and TNFα and termed RG5.
# Live cells were re-suspended to 1×10^6 cells/ml in 2% FBS in PBS and analyzed using a FACSCalibur with CellQuest software (Becton Dickinson). Analysis was preformed using FlowJo software (TreeStar). Cell sorting was done using an Aria I cell sorter (Becton Dickinson).
# [4] = biological target: T2, TIFA; assay: Phosphopeptide analysis of FLAG-TIFA by LC-MS/MS; assay type: cell-based; settings: HBP or mock-treated cells stably expressing FLAG-TIFA; FIG. 19a
# Description: as §1
# [5] = biological target: T2, TIFA; assay: Confocal microscopy of FLAG-TIFA with TRAF6 or Lamp2; assay type: cell-based
# Description: For visualization of FLAG-TIFA and TRAF6, cells were stained overnight at 4° C. with Alexa Fluor-488 conjugated rabbit anti-FLAG (Cell Signaling) and mouse anti-TRAF6 (sc-8409; Santa Cruz), followed by 1 hour with Alexa Fluor-594 conjugated anti mouse (Life Technologies). For visualization of FLAG-TIFA and Lamp2, cells were stained overnight at 4° C. with mouse anti-FLAG (M2; Sigma) and rabbit anti-Lamp2 (ab37024; Abcam), followed by 1 hour with Alexa Fluor-488 conjugated anti-mouse (Life Technologies) and Alexa Fluor-594 conjugated anti-rabbit (Life Technologies). Slides were visualized using an LSM510 (Carl Zeiss) confocal microscope. For analysis, images were processed using ImageJ software
# [6] = test system: THP-1 macrophages; assay: qRT-PCR analysis of THP-1 macrophages treated with synthetic HBP and TLR ligands; assay type: cell-based, human; settings: 4 hr, with PAM3CSK4 or flagellin; FIG. 3c
# Description: FIG. 3(c), qRT-PCR analysis of THP-1 macrophages treated with synthetic HBP (sHBP), PAM3CSK4 (PAM3), or flagellin (FLAG) for 4 hr, expressed as fold increase relative to untreated after normalization to GAPDH. Data represent ≥3 independent experiments performed in duplicate. All error bars±s.e.m. *P<0.05, **P<0.01 by ANOVA.
# THP-1 cells were maintained in RPMI supplemented with 10% FBS and 1% glutamax and differentiated to macrophages with 50 ng/ml PMA for 48 hr, followed by a 48 hr rest period prior to stimulation. […] Results are expressed as fold change compared to untreated.
# [7] = test system: TIFA expression; assay: qRT-PCR of TIFA mRNA levels in Jurkat T cells; assay type: cell-based, human; settings: dependent on RelA, FIG. 13
# Source text: FIG. 13. Shown is qRT-PCR analysis of TIFA mRNA levels in Jurkat T cells treated with HBP, flagellin, or TNFα (after knockdown of the NF-κB subunit ReIA, or treated with a scrambled shRNA (shCtrl).
# RNA was isolated using an RNeasy kit (Qiagen) per manufacturers' protocol. cDNA was synthesized using the iScript cDNA synthesis kit (Bio-Rad) and treated with TURBO DNase (Life Technologies). cDNA was amplified using SsoAdvanced SYBR Green (Bio-Rad) using a C1000 thermal cycler (Bio-Rad). Target genes were amplified using the following primers: […]
# Relative expression was calculated using the 2^−ΔΔCT method following normalization of target gene abundance to GAPDH. Quantitative measurements of cytokines were performed using ELISA kits form R&D Systems (KC, IL-23, IFN-β) or BD Biosciences (IL-1β, IL-8, IL-6, IL-12p70, TNF-α). Nuclear extracts were prepared from Jurkat T cells and NF-κB subunit binding was determined using the TransAM® Transcription Factor ELISA (Active Motif). Microarray
# [8] = test system: TRAF2; assay: FLAG-TIFA immunoprecipitation and immunoblot for TRAF2; assay type: cell-based, human; settings: HBP treatment; FIG. 16a
# Description: as §1
smiles,measurement,setting,value
"O=P(O)(O)OC[C@@H](O)[C@H]1OC(OP(=O)(O)O)[C@@H](O)[C@@H](O)[C@@H]1O (stereo partly drawn) [HBP, D-glycerol-D-manno-heptose-1,7-bisphosphate]",Ubiquitin chains in the TIFA-TRAF6 complex,"[1]; Jurkat cells, TIFA immunoprecipitation, FIG. 17a",Ubiquitin chains could be detected
same,TIFA-TRAF6 interaction,"[1]; cells expressing FLAG-TIFA, endogenous TIFA knocked down, FIG. 16a",completely dependent on HBP
same,Time at which TIFA-TRAF6 interaction was apparent,"[1]; post treatment, FIG. 16a",30 min
same,TIFA oligomerization,[2],triggered TIFA oligomerization
same,HIV gene expression from latently-infected cells,[3],potently induce HIV gene expression
same,TIFA Thr9 phosphorylation,[4],phosphorylated only after treatment with HBP
same,TIFA co-localization with TRAF6,"[5]; 293T cells, 3 hr, FIG. 16b",co-localized with TRAF6 in distinct foci
same,Formation of TIFA aggregates co-localized with Lamp2,"[5]; 293 cells, 4 hr, FIG. 21",induced the formation of large TIFA aggregates
same,Activation of THP-1 macrophages in combination with TLR ligands,[6],synergistically activated THP-1 macrophages
same,Upregulation of TIFA expression,[7],over 5 fold
same,TIFA interaction with TRAF2,[8],No interaction was observed

# — patent US10238738B2, “Methods of modulating immune system responses” (priority 2014, dated 2019)
